In ChEMBL document CHEMBL3885881, “DrugMatrix”:

Species: Rattus norvegicus
Test: DrugMatrix - Regimen: Daily Repeat
Format: toxicity, organism-based, Sprague-Dawley
Design: regimen Daily Repeat, gender Male, age 6-8 weeks
Conditions: in vivo, ip, 0 mg/kg, route intraperitoneal, dose level Control, vehicle 100 % SALINE; for ABSOLUTE BASOPHIL / ABSOLUTE EOSINOPHIL / ABSOLUTE LYMPHOCYTE / ABSOLUTE MONOCYTE / ABSOLUTE SEGMENTED NEUTROPHIL / BASOPHIL / EOSINOPHIL / ERYTHROCYTE COUNT / HEMATOCRIT / HEMOGLOBIN / LEUKOCYTE COUNT / LYMPHOCYTE / MEAN CORPUSCULAR HEMOGLOBIN / MEAN CORPUSCULAR HEMOGLOBIN CONCENTRATION / MEAN CORPUSCULAR VOLUME / MONOCYTE / NEUTROPHIL / PLATELET COUNT: tissue Blood
[1] = 120 h, tissue Plasma, time 5 day
[2] = […], tissue Plasma, time 14 day
[3] = […], tissue Plasma, time 28 day

For TRANSPLATIN, which ABSOLUTE BASOPHIL (120 h, time 5 day) is on record?
The ABSOLUTE BASOPHIL was 32 cells/µL.

What about the ABSOLUTE EOSINOPHIL (120 h, time 5 day) of the same sequence?
Its ABSOLUTE EOSINOPHIL is 110 cells/µL.

And the ABSOLUTE LYMPHOCYTE (120 h, time 5 day)?
The ABSOLUTE LYMPHOCYTE was 6630 cells/µL.

And the ABSOLUTE MONOCYTE (120 h, time 5 day)?
Its ABSOLUTE MONOCYTE is 140 cells/µL.

And the ABSOLUTE SEGMENTED NEUTROPHIL (120 h, time 5 day)?
The ABSOLUTE SEGMENTED NEUTROPHIL was 1170 cells/µL.

And the BASOPHIL (120 h, time 5 day)?
The BASOPHIL was 0.38%.

What about the EOSINOPHIL (120 h, time 5 day) of the same sequence?
The EOSINOPHIL was 1.28%.

What about the “ERYTHROCYTE COUNT” value (120 h, time 5 day) of the same sequence?
Its value is 7.45 x10E6/uL.

And the HEMATOCRIT (120 h, time 5 day)?
The HEMATOCRIT was 45.74%.

And the HEMOGLOBIN (120 h, time 5 day)?
Its HEMOGLOBIN is 14.72 G/DL.

What about the “LEUKOCYTE COUNT” value (120 h, time 5 day) of the same sequence?
Its value is 8.11 x10E3/uL.

What about the LYMPHOCYTE (120 h, time 5 day) of the same sequence?
The LYMPHOCYTE was 81.3%.

And the “MEAN CORPUSCULAR HEMOGLOBIN” value (120 h, time 5 day)?
The value was 19.76 pg.

What about the “MEAN CORPUSCULAR HEMOGLOBIN CONCENTRATION” value (120 h, time 5 day) of the same sequence?
The value was 32.16 G/DL.

What about the “MEAN CORPUSCULAR VOLUME” value (120 h, time 5 day) of the same sequence?
Its value is 61.38 fL.

What about the MONOCYTE (120 h, time 5 day) of the same sequence?
Its MONOCYTE is 1.76%.

What about the NEUTROPHIL (120 h, time 5 day) of the same sequence?
The NEUTROPHIL was 14.9%.

And the “PLATELET COUNT” value (120 h, time 5 day)?
Its value is 1322.4 x10E3/uL.

And the “ALANINE AMINOTRANSFERASE” value [1]?
The value was 25.8 u/L.

And the ALBUMIN [1]?
The ALBUMIN was 3.64 G/DL.

And the “ASPARTATE AMINOTRANSFERASE” value [1]?
Its value is 81.4 u/L.

And the “BLOOD UREA NITROGEN” value [1]?
Its value is 14.4 mg/dL.

What about the CHOLESTEROL [1] of the same sequence?
The CHOLESTEROL was 69.2 mg/dL.

What about the “CREATINE PHOSPHOKINASE” value [1] of the same sequence?
The value was 303.2 u/L.

And the CREATININE [1]?
Its CREATININE is 0.56 mg/dL.

And the GLUCOSE [1]?
Its GLUCOSE is 125.4 mg/dL.

What about the “LACTATE DEHYDROGENASE” value [1] of the same sequence?
Its value is 105.4 u/L.

And the LIPASE [1]?
Its LIPASE is 22.4 u/L.

And the POTASSIUM [1]?
The POTASSIUM was 5.52 MEQ/L.

And the SODIUM [1]?
The SODIUM was 147 MEQ/L.

And the “TOTAL BILIRUBIN” value [1]?
The value was 0.2 mg/dL.

And the “TOTAL PROTEIN” value [1]?
Its value is 6.1 G/DL.

What about the “URIC ACID” value [1] of the same sequence?
Its value is 1.06 mg/dL.

What about the ABSOLUTE BASOPHIL ([…], time 14 day) of the same sequence?
Its ABSOLUTE BASOPHIL is 130 cells/µL.

What about the ABSOLUTE EOSINOPHIL ([…], time 14 day) of the same sequence?
Its ABSOLUTE EOSINOPHIL is 140 cells/µL.

And the ABSOLUTE LYMPHOCYTE ([…], time 14 day)?
Its ABSOLUTE LYMPHOCYTE is 13500 cells/µL.

What about the ABSOLUTE MONOCYTE ([…], time 14 day) of the same sequence?
Its ABSOLUTE MONOCYTE is 400 cells/µL.

And the ABSOLUTE SEGMENTED NEUTROPHIL ([…], time 14 day)?
The ABSOLUTE SEGMENTED NEUTROPHIL was 2330 cells/µL.

What about the BASOPHIL ([…], time 14 day) of the same sequence?
The BASOPHIL was 0.72%.

And the EOSINOPHIL ([…], time 14 day)?
The EOSINOPHIL was 0.86%.

And the “ERYTHROCYTE COUNT” value ([…], time 14 day)?
Its value is 7.74 x10E6/uL.

What about the HEMATOCRIT ([…], time 14 day) of the same sequence?
Its HEMATOCRIT is 45.98%.

And the “LEUKOCYTE COUNT” value ([…], time 14 day)?
The value was 16.61 x10E3/uL.

What about the LYMPHOCYTE ([…], time 14 day) of the same sequence?
The LYMPHOCYTE was 81.34%.

And the “MEAN CORPUSCULAR HEMOGLOBIN” value ([…], time 14 day)?
Its value is 18 pg.

And the “MEAN CORPUSCULAR HEMOGLOBIN CONCENTRATION” value ([…], time 14 day)?
The value was 30.22 G/DL.

What about the “MEAN CORPUSCULAR VOLUME” value ([…], time 14 day) of the same sequence?
The value was 59.4 fL.

What about the MONOCYTE ([…], time 14 day) of the same sequence?
The MONOCYTE was 2.46%.

What about the NEUTROPHIL ([…], time 14 day) of the same sequence?
The NEUTROPHIL was 14.14%.

And the “PLATELET COUNT” value ([…], time 14 day)?
The value was 1445.5 x10E3/uL.

And the ABSOLUTE BASOPHIL ([…], time 28 day)?
Its ABSOLUTE BASOPHIL is 91 cells/µL.

What about the ABSOLUTE EOSINOPHIL ([…], time 28 day) of the same sequence?
The ABSOLUTE EOSINOPHIL was 110 cells/µL.

And the ABSOLUTE LYMPHOCYTE ([…], time 28 day)?
The ABSOLUTE LYMPHOCYTE was 9910 cells/µL.

And the ABSOLUTE MONOCYTE ([…], time 28 day)?
The ABSOLUTE MONOCYTE was 210 cells/µL.

What about the ABSOLUTE SEGMENTED NEUTROPHIL ([…], time 28 day) of the same sequence?
The ABSOLUTE SEGMENTED NEUTROPHIL was 1560 cells/µL.

What about the BASOPHIL ([…], time 28 day) of the same sequence?
Its BASOPHIL is 0.77%.

And the EOSINOPHIL ([…], time 28 day)?
Its EOSINOPHIL is 0.92%.

What about the “ERYTHROCYTE COUNT” value ([…], time 28 day) of the same sequence?
Its value is 8.21 x10E6/uL.

What about the HEMATOCRIT ([…], time 28 day) of the same sequence?
The HEMATOCRIT was 47.53%.

And the HEMOGLOBIN ([…], time 28 day)?
The HEMOGLOBIN was 15.65 G/DL.

And the “LEUKOCYTE COUNT” value ([…], time 28 day)?
The value was 11.91 x10E3/uL.

And the LYMPHOCYTE ([…], time 28 day)?
Its LYMPHOCYTE is 83.34%.

What about the “MEAN CORPUSCULAR HEMOGLOBIN” value ([…], time 28 day) of the same sequence?
The value was 19.07 pg.

And the “MEAN CORPUSCULAR HEMOGLOBIN CONCENTRATION” value ([…], time 28 day)?
Its value is 32.93 G/DL.

And the “MEAN CORPUSCULAR VOLUME” value ([…], time 28 day)?
The value was 57.9 fL.

What about the MONOCYTE ([…], time 28 day) of the same sequence?
Its MONOCYTE is 1.68%.

What about the NEUTROPHIL ([…], time 28 day) of the same sequence?
The NEUTROPHIL was 12.97%.

And the “PLATELET COUNT” value ([…], time 28 day)?
Its value is 1323.8 x10E3/uL.

And the “ALANINE AMINOTRANSFERASE” value [2]?
Its value is 31.6 u/L.

What about the ALBUMIN [2] of the same sequence?
Its ALBUMIN is 3.66 G/DL.

What about the “ALKALINE PHOSPHATASE” value [2] of the same sequence?
The value was 228.6 u/L.

And the “ASPARTATE AMINOTRANSFERASE” value [2]?
Its value is 79.6 u/L.

And the “BLOOD UREA NITROGEN” value [2]?
The value was 11.2 mg/dL.

And the CHLORIDE [2]?
Its CHLORIDE is 107 MEQ/L.

And the CHOLESTEROL [2]?
Its CHOLESTEROL is 57 mg/dL.

What about the CREATININE [2] of the same sequence?
Its CREATININE is 0.5 mg/dL.

What about the GLUCOSE [2] of the same sequence?
The GLUCOSE was 124.4 mg/dL.

And the “LACTATE DEHYDROGENASE” value [2]?
Its value is 106.4 u/L.

What about the LIPASE [2] of the same sequence?
The LIPASE was 24.4 u/L.

And the PHOSPHORUS [2]?
Its PHOSPHORUS is 10.52 mg/dL.

And the POTASSIUM [2]?
The POTASSIUM was 6.34 MEQ/L.

And the SODIUM [2]?
Its SODIUM is 149.2 MEQ/L.

What about the “TOTAL BILIRUBIN” value [2] of the same sequence?
The value was 0.2 mg/dL.

And the “TOTAL PROTEIN” value [2]?
The value was 6.48 G/DL.

And the “URIC ACID” value [2]?
Its value is 0.94 mg/dL.

What about the “ALANINE AMINOTRANSFERASE” value [3] of the same sequence?
The value was 30 u/L.

And the ALBUMIN [3]?
The ALBUMIN was 3.71 G/DL.

What about the “ALKALINE PHOSPHATASE” value [3] of the same sequence?
Its value is 186.8 u/L.

And the “ASPARTATE AMINOTRANSFERASE” value [3]?
The value was 78.2 u/L.

And the “BLOOD UREA NITROGEN” value [3]?
Its value is 14.2 mg/dL.

What about the CHOLESTEROL [3] of the same sequence?
Its CHOLESTEROL is 44.9 mg/dL.

What about the “CREATINE PHOSPHOKINASE” value [3] of the same sequence?
The value was 334.3 u/L.

And the CREATININE [3]?
Its CREATININE is 0.6 mg/dL.

What about the GLUCOSE [3] of the same sequence?
The GLUCOSE was 147.2 mg/dL.

And the “LACTATE DEHYDROGENASE” value [3]?
Its value is 123.1 u/L.

And the LIPASE [3]?
Its LIPASE is 9.6 u/L.

What about the PHOSPHORUS [3] of the same sequence?
The PHOSPHORUS was 10.01 mg/dL.

What about the POTASSIUM [3] of the same sequence?
The POTASSIUM was 6.57 MEQ/L.

And the SODIUM [3]?
Its SODIUM is 149.5 MEQ/L.

What about the “TOTAL BILIRUBIN” value [3] of the same sequence?
The value was 0.21 mg/dL.

And the “TOTAL PROTEIN” value [3]?
The value was 6.66 G/DL.

What about the “URIC ACID” value [3] of the same sequence?
The value was 1.26 mg/dL.
